We go through 16 compounds from US20070129367A1, “Pyridine derivatives as cb2 receptor modulators” (priority 2002, published 2007).

The assay has as its target T1, human cannabinoid CB2 receptor (Homo sapiens, UniProt P34972).
T1 construct: expressed in transfected cells; host or cells: Saccharomyces cerevisiae strain MMY23 (cassette integrated at the ura3 locus, GPD promoter)
Description: Cannabinoid CB2 receptor agonist activity in yeast (Saccharomyces cerevisiae) cells expressing the receptor, FDGlu fluorescence readout.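 As to Emax: percent of the maximal response of the reference agonist HU210.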 It is filed as cell-based. The following applies: for Emax: read-out: efficacy (Emax) at the cloned human cannabinoid CB2 receptor. The protocol:
Determination of Cannabinoid CB2 Receptor Agonist Activity
The cannabinoid CB2 receptor agonist activity of the compounds of formula (I) was determined in accordance with the following experimental method.
Yeast (Saccharomyces cerevisiae) cells expressing the human cannabinoid CB2 receptor were generated by integration of an expression cassette into the ura3 chromosomal locus of yeast strain MMY23. This cassette consisted of DNA sequence encoding the human CB2 receptor flanked by the yeast GPD promoter to the 5′ end of CB2 and a yeast transcriptional terminator sequence to the 3′ end of CB2. MMY23 expresses a yeast/mammalian chimeric G-protein alpha subunit in which the C-terminal 5 amino acids of Gpa1 are replaced with the C-terminal 5 amino acids of human Gαi3 (as described in Brown et aL (2000), Yeast 16:11-22). Cells were grown at 30° C. in liquid Synthetic Complete (SC) yeast media (Guthrie and Fink (1991), Methods in Enzymology, Vol. 194) lacking uracil, tryptophan, adenine and leucine to late logarithmic phase (approximately 6 OD600/ml).
Agonists were prepared as 10 mM stocks in DMSO. […] Agonist solutions in DMSO (1% final assay volume) were transferred into black, clear bottom, microtitre plates from NUNC (96- or 384-well). […] This mixture (50 ul per well for 384-well plates, 200 ul per well for 96-well plates) was added to agonist in the assay plates (Multidrop 384, Labsystems). After incubation at 30° C. for 24 hours, fluorescence resulting from degradation of FDGlu to fluorescein due to exoglucanase, an endogenous yeast enzyme produced during agonist-stimulated cell growth, was determined using a Spectrofluor microtitre plate reader (Tecan; excitation wavelength: 485 nm; emission wavelength: 535 nm). Fluorescence was plotted against compound concentration and iteratively curve fitted using a four parameter fit to generate a concentration effect value. […] Equieffective molar ratio (EMR) values were calculated from the equation EMR=EC50 [compound X]/EC50 [HU210]
Where EC50 [compound X] is the EC50 of compound X and EC50 [HU210] is the EC50 of HU210.

The mark [1] stands for this setting: agonist activity, yeast cells, 24 hours at 30° C., read-out: EC50 at the cloned human cannabinoid CB2 receptor.

Where two headings read alike, the source gives them in different places. Some results are limits rather than exact numbers.

T1 sequence (P34972 whole entry): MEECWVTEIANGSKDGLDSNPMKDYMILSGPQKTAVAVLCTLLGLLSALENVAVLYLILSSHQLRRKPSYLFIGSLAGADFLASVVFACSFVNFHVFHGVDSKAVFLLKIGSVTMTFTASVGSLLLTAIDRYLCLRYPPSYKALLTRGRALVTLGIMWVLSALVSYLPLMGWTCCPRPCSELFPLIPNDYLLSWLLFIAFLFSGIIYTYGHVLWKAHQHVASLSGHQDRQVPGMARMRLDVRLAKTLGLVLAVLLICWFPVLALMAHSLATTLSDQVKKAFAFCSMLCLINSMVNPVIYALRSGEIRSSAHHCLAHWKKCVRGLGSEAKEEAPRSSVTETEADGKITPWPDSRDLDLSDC

As for `O=C(NCc1ccnc(F)c1)c1cnc(Nc2cccc(Cl)c2)cc1C(F)(F)F` [Example 45, N-(2-Fluoro-pyridin-4-ylmethyl)-6-(3-chloro-phenylamino)-4-trifluoromethyl-nicotinamide], the EC50 (commonly the concentration at which the effect is half-maximal) was less than 300 nM and the Emax – broadly, the size of the effect at its maximum, as opposed to the concentration needed – was more than 50%.

As for `CC(C)c1cc(Nc2ccc(F)c(Cl)c2)ncc1C(=O)NCc1ccc(F)cc1` [Example 15, 6-(3-Chloro-4-fluoro-phenylamino)-N-(4-fluoro-benzyl)-4-isopropyl-nicotinamide], the EC50 under setting [1] is less than 300 nM.

Regarding `CC(C)c1cc(Nc2cccc(F)c2)ncc1C(=O)NCc1ccc(F)cc1` [Example 17, N-(4-Fluoro-benzyl)-6-(3-fluoro-phenylamino)-4-isopropyl-nicotinamide], the half-maximal effective concentration (EC50) was less than 300 nM and the maximal effect (Emax) is more than 50%.

`CC(C)c1cc(Nc2ccc(C#N)cc2)ncc1C(=O)NCc1ccc(F)cc1` [Example 18, 6-(4-Cyano-phenylamino)-N-(4-fluoro-benzyl)-4-isopropyl-nicotinamide]: the EC50 under setting [1] is less than 300 nM.

For the compound `CC(C)c1cc(Nc2cc(Cl)ccc2F)ncc1C(=O)NCc1ccc(F)cc1` [Example 72, 6-(5-Chloro-2-fluoro-phenylamino)-N-(4-fluoro-benzyl)-4-isopropyl-nicotinamide], the concentration giving a half-maximal response (EC50) under setting [1] is less than 300 nM.

As for `CC(C)c1cc(Nc2cc(Cl)ccc2Cl)ncc1C(=O)NCc1ccc(F)cc1` [Example 74, 6-(2,5-Dichloro-phenylamino)-N-(4-fiuoro-benzyl)-4-isopropyl-nicotinamide], the EC50 fell in the range of 300 to 1000 nM and the Emax was more than 50%.

On to `CC(C)c1cc(Nc2ccc(Cl)cc2Br)ncc1C(=O)NCc1ccc(F)cc1` [Example 70, 6-(2-Bromo-4-chloro-phenylamino)-N-(4-fluoro-benzyl)-4-isopropyl-nicotinamide], for which the EC50 is less than 300 nM and the maximum response (Emax) is more than 50%.

`COc1cccc(Nc2cc(C(C)C)c(C(=O)NCc3ccc(F)cc3)cn2)c1` [Example 30]: the EC50 fell in the range of 300 to 1000 nM and the Emax was more than 50%.

In the case of `CC(C)c1cc(Nc2ccc(Cl)cc2Cl)ncc1C(=O)NCc1ccc(F)cc1` [Example 22, 6-(2,4-Dichloro-phenylamino)-N-(4-fluoro-benzyl)-4-isopropyl-nicotinamide], the concentration for a half-maximal effect (EC50) was less than 300 nM and the Emax is more than 50%.

For the compound `Cc1cc(Cl)ccc1Nc1cc(C(F)(F)F)c(C(=O)NCc2ccncc2)cn1` [Example 58, N-(Pyridin-4-ylmethyl)-6-(2-methyl-4-chloro-phenylamino)-4-trifluoromethyl-nicotinamide], the half-maximal effective concentration (EC50) is less than 300 nM and the Emax was more than 50%.

As for `O=C(NCc1ccc(F)cc1)c1cnc(Nc2cccc(F)c2)cc1C(F)(F)F` [Example 49, N-(4-Fluoro-benzyl)-6-(3-fluoro-phenylamino)-4-trifluoromethyl-nicotinamide], the concentration giving a half-maximal response (EC50) was less than 300 nM and the Emax is more than 50%.

`COc1ccc(CNC(=O)c2cnc(Nc3cccc(Cl)c3)cc2C(C)C)cc1` [Example 6, 6-(3-Chloro-phenylamino)-4-isopropyl-N-(4-methoxy-benzyl)-nicotinamide]: the EC50 lay within 300 to 1000 nM and the Emax is more than 50%.

For `O=C(NCc1ccccc1)c1cnc(Nc2cccc(Cl)c2)cc1C(F)(F)F` [Example 2, 2-(3-Chlorophenylamino)-4-trifluoromethylpyridine-5-carboxylic acid benzylamide], the concentration for a half-maximal effect (EC50) is less than 300 nM and the Emax is more than 50%.

In the case of `Cc1cc(C#N)ccc1Nc1cc(C(C)C)c(C(=O)NCc2ccc(F)cc2)cn1` [Example 73, 6-(4-Cyano-2-methyl-phenylamino)-N-(4-fluoro-benzyl)-4-isopropyl-nicotinamide], the concentration for a half-maximal effect (EC50) under setting [1] is less than 300 nM.

As for `CC(C)c1cc(Nc2cccc(Cl)c2)ncc1C(=O)NCc1ccc(F)c(F)c1` [Example 7, 6-(3-Chloro-phenylamino)-N-(3,4-difluoro-benzyl)-4-isopropyl-nicotinamide], the concentration giving a half-maximal response (EC50) was in the range of 300 to 1000 nM and the Emax is more than 50%.

In the case of `CC(C)c1cc(Nc2ccc(C(F)(F)F)c(F)c2)ncc1C(=O)NCc1ccc(F)cc1` [Example 76, N-(4-fluoro-benzyl)-6-(3-Fluoro-4-trifluormethyl-phenylamino)-4-isopropyl-nicotinamide], under setting [1], the EC50 was in the range of 300 to 1000 nM.
